We go through one compound from patent publication US20260000658A1, “METHODS FOR THE TREATMENT OF PROLIFERATIVE GLOMERULONEPHRITIS” (INSTITUT NATIONAL DE LA SANTÉ ET DE LA RECHERCHE MÉDICALE, priority 2022, published 2026).

Holding throughout (assay type): in vivo, mouse
Series [1] deals with uninephrectomized PIK3CA^Pod-HO mice. Put plainly: Uninephrectomized PIK3CA^Pod-HO mice, vehicle or alpelisib. From the text:
(§1) A. Urinary albumin to creatinine ratio of PIK3CAWT and PIK3CAPod-HO mice 2 weeks following uninephrectomy and treated either with vehicle or alpelisib (n=8-9 mice per group). B. Serum creatinine levels, C. blood urea nitrogen (BUN) levels of PIK3CAWT and PIK3CAPod-HO mice 2 weeks following uninephrectomy and treated either with vehicle or alpelisib (n=8-9 mice per group). D. Glomerular lesion score of PIK3CAWT and PIK3CAPod-HO mice 2 weeks following uninephrectomy and treated either with vehicle or alpelisib (n=8-9 mice per group). E. Trajectory of albumin to creatinine ratio in the urine of PIK3CAPod-HO mice following uninephrectomy and treated with either vehicle or alpelisib (n=8-9 mice per group).
(§2) For the uninephrectomy experiments, the right kidneys were removed under anesthesia. For the medical treatment of mice, 50 mg kg −1 alpelisib (MedChem Tronica) in 1% carboxymethylcellulose (Sigma Aldrich)+0.5% Tween (Sigma Aldrich) or vehicle (1% carboxymethylcellulose+0.5% Tween) was administered by oral gavage daily for the indicated periods of time. Blood and urines were obtained at the indicated times. At euthanasia, blood, urines, kidneys were harvested. In some experiments, spleens, hearts, and bone marrow (BM) in femurs and tibias were harvested as well. Tissues were fixed in 4% paraformaldehyde and paraffin embedded for immunohistochemical analysis, snap-frozen in Optimal Cutting Temperature (OCT), or stored at −80° C. for mRNA or protein analysis.
(§3) Mouse blood counts were analyzed using a hematology analyzer (ProCyte Dx; IDEXX Laboratories). Mouse serum creatinine, blood urea nitrogen, urinary albumin, and urinary creatinine were evaluated using an AU5800 (Beckman Coulter) autoanalyzer. Serum anti-dsDNA measurement was performed according to the manufacturer's instruction using mouse anti-dsDNA ELISA kit (LBIS). The absorbance was measured using Ininite M Nano (TECAN).
(§4) 4-μm kidney sections were stained with periodic acid-Schiff (PAS), Masson's Trichrome (MT), Periodic acid metenamine silver (PAM) or Hematoxylin and Eosin (HE) staining for histological analysis. The degree of glomerular lesions was evaluated using the following scoring system: 0=no lesion, 1=affecting up to 25% of the glomerulus, 2=affecting 25-50% of the glomerulus, 3=affecting 50-75% of the glomerulus, and 4=affecting 75-100%. At least 50 glomeruli per sample were measured for each analysis. An indirect immunoperoxidase method was used for immunohistochemistry. Briefly, after deparaffinization, antigen retrieval was performed with citrate buffer (pH6) or Tris-EDTA buffer (pH9 or pH6) using microwave or high temperature (95° C.). Endogenous peroxidase activity was quenched using 3% hydrogen peroxide; nonspecific protein binding was blocked using 2.5% normal horse serum (Vector Laboratories), and endogenous biotin activity was quenched using the Avidin/Biotin Blocking Kit (Vector Laboratories). When using mouse primary antibodies on mouse tissue, Klear mouse blocking reagent (Diagomics) was used to block endogenous mouse immunoglobulins. After blocking, the tissue sections were incubated with the primary antibodies overnight at 4° C. The following primary antibodies were used: rabbit anti-Ki67 antibody (SP6; Thermo Fisher Scientific), rabbit anti-P-S6RP antibody (D68F8; Cell Signaling Technology), mouse anti-P-AKT (Ser473) antibody (587F11; Cell Signaling Technology), rabbit anti-P-AKT (Thr308) antibody (C31E5E; Cell Signaling Technology), mouse anti-S6RP antibody (54E2; Cell Signaling Technology), chicken anti-GFP antibody (Abcam), guinea pig anti-Nephrin antibody (GP-N2; Progen), rabbit anti-Podocin antibody (P0372; Sigma Aldrich), mouse anti-WTI antibody (6F-H2; DAKO). The corresponding secondary antibodies including anti-mouse IgG, anti-rabbit IgG, anti-guinea pig IgG, biotinylated anti-rabbit IgG (Vector Laboratories), and biotinylated anti-mouse IgG (Vector Laboratories) were applied. […]

A further series deals with uninephrectomized mice. The series is described as above. The following applies: PIK3CA^WT mice, 2 weeks treatment.
From the text: as §1, §2, §3, §4

In series [2] the test system is uninephrectomized Tg26^HE mice. Put plainly: Uninephrectomized Tg26^HE mice (accelerated collapsing glomerulopathy model), vehicle or alpelisib for 4 weeks. The protocol:
Scale bar P-S6RP, and P-AKTSer473 mean intensity quantification (n=5-6 mice per group). P. Serum creatinine level, and Blood urea nitrogen level of Tg26WT and Tg26HE mice at the time of sacrifice (4 weeks following uninephrectomy and treated either with vehicle or alpelisib) (n=8-9 mice per group)
as §2, §3
as §4, with “applied. For Avidin/Biotin detection, an R.T.U. Vectastain Kit (Vector Laboratories) or streptavidin (Thermo Fisher Scientific) was used. The immunoreactive antigens sites were detected with hydrogen peroxide and diaminobenzidine. For frozen immunofluorescent staining, frozen tissue sections (4 μm) were briefly air dried and fixed in 50% methanol/50% acetone.” for “applied.”

The mark [3] stands for this setting: 2 weeks after uninephrectomy, vs vehicle.

On to `Cc1nc(NC(=O)N2CCC[C@H]2C(N)=O)sc1-c1ccnc(C(C)(C)C(F)(F)F)c1` [alpelisib, Alpelisib], for which, in series [1] (setting [3]), the “expression of podocytes markers” value is on record as “higher expression of podocytes markers”; the glomerular lesion score result is “preserved glomerular”; the “kidney function (serum creatinine, BUN)” value is “better kidney function”; the “podocyte AKT/mTOR pathway activation” value is “decreased podocyte AKT/mTOR pathway activation”. In series [1] (setting [3]), the tubular dilation entry was “fewer tubular dilation”. In series [1] (nephrectomy at 8 weeks old, 2 weeks treatment), the “proteinuria (urinary albumin to creatinine ratio)” value is given as “significantly decreased”. For the same compound, the “kidney lesions (title of FIG. 2)” value in series [1] (uninephrectomized PIK3CAPod-HO mice) is on record as “improves kidney lesions”. Also, the “phenotype of uninephrectomized PIK3CA^WT control mice” value with uninephrectomized mice was “no particular phenotype, without proteinuria or kidney dysfunction”. Besides, in series [2] (4 weeks treatment), the “AKT/mTOR pathway in glomeruli” value is given as “profoundly blunted”; the “expression of Col1a, Col3a and Lcn2” value is on record as “reduced expression”; the “expression of podocyte markers” value is listed as “maintained expression of podocyte markers”; the “glomerular lesions, kidney histology” value is listed as “fewer glomerular lesions”. Moreover, the ratio kidney/body weight entry in series [2] (4 weeks treatment) is listed as “improved”. For the same compound, in series [2] (4 weeks treatment, vs vehicle), the albuminuria entry was “significantly improved” and the “kidney function (serum creatinine, blood urea nitrogen)” value is given as “significantly improved”. Also, the “kidney lesions (title of FIG. 3)” value in series [2] (accelerated mouse model of collapsing glomerulopathy) is “improves kidney lesions”. The “surfaces of the kidneys at sacrifice” value in series [2] (uninephrectomy at 4 weeks old, 4 weeks treatment) is “regular and smooth”.
